Laboratory results taken from patent publication US20080096807A1, “Cyclic vasoactive intestinal peptide receptor-2 agonists” (priority 2006, published 2008).
Bridge positions count the residues as written; N and C are the ends. Square brackets hold non-standard residues; d marks the D form. Peptide text beside a SMILES is read from it. ξ: configuration not given here. Thr(3ξ) = CC(O)[C@H](N)C(=O)O; αMeV = CC(C)[C@](C)(N)C(=O)O; Nle = CCCC[C@H](N)C(=O)O

Experiments:
[1] = target: Ac-His-Ser-Asp-Ala-MeVal-Phe-Thr-Glu-Asn-Tyr-thr-Lys-Leu-Arg-Lys-Gln-Nle-Ala-Ala-Lys-Lys-Tyr-Leu-Asn-Asp-Leu-Leu-Lys-Gly-Gly-Thr-NH2 (Artificial Sequence); conditions: scale: relative to the halftime of the reference standard
[2] = target: Ac-His-Ala-Asp-Ala-MeVal-Phe-Thr-Glu-Asn-Tyr-Thr-Lys-Leu-Arg-Lys-Gln-Nle-Ala-Ala-Lys-Lys-Tyr-Leu-Asn-Asp-Leu-Leu-Lys-Gly-Gly-Thr-NH2 (Artificial Sequence); conditions: scale: relative to the halftime of the reference standard
[3] = target: Ac-His-Ser-Asp-Ala-MeVal-Phe-Thr-Glu-Asn-Tyr-Thr-Lys-Leu-Arg-Lys-Arg-Nle-Ala-Ala-Lys-Lys-Tyr-Leu-Asn-Asp-Leu-Lys-Lys-Gly-Gly-Thr-NH2 (Artificial Sequence); conditions: scale: relative to the halftime of the reference standard
[4] = target: Ac-His-Ala-Asp-Ala-MeVal-Phe-Thr-Glu-Asn-Tyr-Thr-Lys-Leu-Arg-Lys-Gln-Nle-Ala-Ala-Lys-Lys-Tyr-Leu-Asn-Asp-Leu-Lys-Lys-Gly-Gly-Thr-NH2 (Artificial Sequence); conditions: scale: relative to the halftime of the reference standard
[5] = target: T1, human neutrophil elastase (Homo sapiens, UniProt P08246); assay: Peptide stability to neutrophil elastase (RP HPLC ESI MS); conditions: halftime with human neutrophil elastase 1 to 2 μg/mL in PBS, ambient temperature, normalized to halftime of the reference standard
T1 sequence (P08246 30-247 limits assumed): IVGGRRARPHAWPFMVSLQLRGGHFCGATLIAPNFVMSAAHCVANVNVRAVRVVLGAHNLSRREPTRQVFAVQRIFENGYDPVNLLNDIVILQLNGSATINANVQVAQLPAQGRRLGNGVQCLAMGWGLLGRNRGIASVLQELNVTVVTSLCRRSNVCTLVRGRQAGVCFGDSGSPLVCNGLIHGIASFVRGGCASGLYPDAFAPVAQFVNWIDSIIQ
Experimental: The proteolytic stabilities of peptide analogs were established with reversed phase high pressure liquid chromatography (RP HPLC) electrospray ionization mass spectrometry (ESI MS). Peptide analogs were incubated with human neutrophile elastase and the quantity of undigested analogs was determined by ESI MS at appropriate time points. Multiple peptide analogs could be included in one experiment as long as they could be differentiated by HPLC retention time and/or by molecular weight. Ac-His Ac-[sequence]Nle-[sequence]NH2 was used in all experiments as a control and as a reference standard. The simultaneous use of multiple peptide analogs together with a reference standard allowed for compensation for variations in the proteolytic fidelity of the enzyme over the multiple experiments. Integrated ion currents obtained for the individual undigested peptide were used for quantitation. For calculation of halftime first-order kinetic behavior was assumed and all calculations were normalized to the halftime of the reference standard.
Peptide stock solutions were prepared in water to a concentration of 2.5 mg/mL. Unless in use, all stock solutions were kept at −20° C. […] Concentrations of the peptide analogs were adjusted accordingly. In order to do the proteolytic digestion, peptides were dissolved in phosphate buffered saline (PBS) to a concentration of 0.1 mg/mL. As many as six different peptide analogs were mixed into one 50 μL reaction volume. The reference standard was added to all experiments as a reference and internal standard. Elastase (Human Neutrophil, Calbiochem, Cat # 324681) was added from an elastase stock solution to a concentration of 1 to 2 μg/mL. Different amounts of the enzyme were chosen to compensate for the differences in the proteolytic stabilities of the peptide analogs. Previously, a stock solution of elastase was prepared in water at a concentration of 1 mg/mL. Small aliquots of the enzyme stock solution were kept at −20° C. to better maintain the enzyme activity by limiting the number of thaw and freeze cycles.
The digestion was done at ambient temperature in an autosampler tube within the autosampler of the HPLC system (Agilent 1100 Series). For a time course, 5 μL aliquots were injected in 70 minute intervals onto the reversed phase HPLC column (Phenomenex, Luna C18, 3μ, 100 ↑, 150×2.00 mm). For the starting time point an aliquot was injected just prior to the addition of the proteolytic enzyme. A total of eight time points could be recorded from one experiment, including the starting point. Peptides were separated on the reversed phase column with a 50 minute gradient of 5% to 30% organic phase. The aqueous phase was 0.05% (v/v) of trifluoroacetic acid in water and the organic one was 0.045% (v/v) of trifluoroacetic acid in acetonitrile. Absorbances were recorded at 214 and 280 nm respectively. All of the column effluent was introduced into the turbo V source of the electrospray ionization mass spectrometer (ABI 4000 QTrap LC/MS/MS System). Mass spectra were acquired in Q3MS mode in a mass range to include all triply charged ions of the non degraded peptide analogs. Care was taken to assure that peptide analogs could clearly be differentiated either by the chromatographic retention time or by the difference in molecular weight. Relative quantities of the respective undigested peptide analog were calculated from the integrated total ion current. A window of 2.5 Da was chosen and the manufacturer's software was used to integrate the individual ion currents. The overall halftime of an individual peptide analog was calculated by assuming first-order kinetic behavior and was normalized with respect to the halftime of the reference standard.

VPAC2 receptor = target: T2, VPAC2 receptor (Homo sapiens, UniProt P41587); assay: Sup-T1 cAMP agonist assay; type: cell-based; conditions: human T-lymphoid cell line Sup-T1 expressing VPAC2 receptor; cAMP EIA; 5 min at room temperature; read-out: Sup-T1 cAMP EC50
T2 construct: The human T-lymphoid cell line Sup-Ti, which expresses the VPAC2 receptor; host or cells: Sup-T1 (Sup-Ti [sic]) human T-lymphoid cell line
T2 sequence (P41587 24-438): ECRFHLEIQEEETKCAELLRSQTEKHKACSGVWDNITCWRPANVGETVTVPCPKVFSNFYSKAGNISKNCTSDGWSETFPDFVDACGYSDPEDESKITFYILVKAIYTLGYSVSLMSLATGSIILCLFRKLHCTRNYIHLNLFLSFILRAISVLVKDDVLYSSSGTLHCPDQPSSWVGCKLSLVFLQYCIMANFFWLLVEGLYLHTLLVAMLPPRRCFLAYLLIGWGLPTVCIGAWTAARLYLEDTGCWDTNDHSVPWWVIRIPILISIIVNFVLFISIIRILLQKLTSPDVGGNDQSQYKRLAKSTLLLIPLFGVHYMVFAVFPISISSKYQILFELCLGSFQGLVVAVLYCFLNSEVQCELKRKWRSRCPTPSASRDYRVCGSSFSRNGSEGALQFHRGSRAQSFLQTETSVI
Procedure, shortened: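 Sup-T1 human T-lymphoid cells with endogenous VPAC2 (RPMI 1640, 25 mM HEPES, 10% FBS) were plated at 4×10^4 cells/well and exposed to compound for 5 min at room temperature. After lysis, cAMP was measured by enzyme immunoassay. EC50 came from a sigmoidal fit of 7-concentration dose-response data.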

[6] = system: methacholine-induced bronchospasm in mice; assay: Methacholine-induced bronchospasm in mice (whole body plethysmography, Penh); type: in vivo; conditions: balb/c mice; drug by aerosol for 20 minutes before spasmogen challenge; relative to vehicle
Experimental: Respiratory function is measured in conscious, freely moving mice using whole body plethysmographs (WBP) from BUXCO Electronics, Inc. (Troy, N.Y.). WBP chambers allow animals to move freely within the chamber while respiratory function is measured. Eight chambers are used simultaneously so that eight mice can be measured at the same time. Each WBP chamber is connected to a bias flow regulator to supply a smooth, constant flow of fresh air during testing. A transducer attached to each chamber detects pressure changes that occur as the animal breathes. Pressure signals are amplified by a MAX II Strain Gauge preamplifier and analyzed by the Biosystem XA software supplied with the system (BUXCO Electronics, Inc.). Pressure changes within each chamber are calibrated prior to testing by injecting exactly 1 ml of air through the injection port and adjusting the computer signal accordingly. Mice are placed in the WBP chambers and allowed to acclimate for 10 minutes prior to testing. Testing is conducted by letting the animals move and breathe freely for 15 minutes while the following parameters are measured: Tidal Volume (ml), Respiratory Rate (breaths per minutes), Minute Volume (tidal volume multiplied by respiratory rate, ml/min), Inspiratory Time (sec), Expiratory Time (sec), Peak Inspiratory Flow (ml/sec), and Peak Expiratory Flow (ml/sec). Raw data for each of the parameters listed above are captured in the software database and averaged once per minute to give a total of 15 data points per parameter. The average of the 15 data points is reported. Accumulated Volume (ml) is a cumulative value (not averaged) and represents the sum of all tidal volumes for the 15-minute test session. The protocol is customized to include measurements before, during, and after a spasmogen challenge to determine Penh. Dose-response effects of a particular spasmogen (i.e. methacholine (MCh), acetylcholine, etc.) are obtained by giving nebulized aerosol (30-60 sec exposure) at approximately 5-10 min intervals. Mice (balb/c) are treated with vehicle (2% DMSO in H2O) or drug dissolved in 4 ml vehicle for 20 minutes by aerosol, as described above, prior to spasmogen challenge. Penh is determined at 5, 30 and 60 minutes post-challenge. Data are reported as percent inhibition of Penh relative to vehicle.

[7] = system: LPS-induced lung inflammation in male C57BL/6 mice; assay: LPS-induced lung inflammation in male C57BL/6 mice (BAL neutrophilia); type: in vivo; conditions: Dose 0.01%, BAL fluid neutrophilia

| Relative elastase stability [1] | Relative elastase stability [2] | Relative elastase stability [3] | Relative elastase stability [4] | Relative elastase stability [5] | EC50 (VPAC2 receptor) [nM] | Compound | Inhibition of Penh at 5 minutes post-challenge [6] | Inhibition of LPS-induced neutrophilia [7] |
| --- | --- | --- | --- | --- | --- | --- | --- | --- |
| 3.4 | 3.6 | 1.8 | 5.7 |  |  | Elastase (Human Neutrophil, Calbiochem, Cat # 324681) (from UniProt P08246) (enzyme) |  |  |
|  |  |  |  | 3.3 | 68.4 | CCCC[C@H](NC(=O)[C@H](CCCNC(=N)N)NC(=O)[C@H](CCCCN)NC(=O)[C@H](CCCNC(=N)N)NC(=O)[C@H](CC(C)C)NC(=O)[C@H](CCCCN)NC(=O)[C@@H](NC(=O)[C@H](Cc1ccc(O)cc1)NC(=O)[C@H](CC(N)=O)NC(=O)[C@H](CCC(=O)O)NC(=O)[C@@H](NC(=O)[C@H](Cc1ccccc1)NC(=O)[C@H](CO)NC(=O)[C@H](C)NC(=O)[C@H](CC(=O)O)NC(=O)[C@H](CO)NC(=O)[C@H](Cc1c[nH]cn1)NC(C)=O)C(C)O)C(C)O)C(=O)N[C@@H](CCC(=O)O)C(=O)N[C@@H](C)C(=O)N[C@@H](CCCCN)C(=O)N[C@H]1CCCCNC(=O)C[C@@H](C(=O)N[C@@H](CC(C)C)C(=O)N[C@@H](CC(C)C)C(=O)N[C@@H](CCCCN)C(=O)NCC(=O)NCC(=O)N[C@H](C(N)=O)C(C)O)NC(=O)[C@H](CC(N)=O)NC(=O)[C@H](CC(C)C)NC(=O)[C@H](Cc2ccc(O)cc2)NC1=O (stereo partly shown) [Example 19] (Ac-HSDASF[Thr(3ξ)]ENY[Thr(3ξ)]KLRKR[Nle]EAKKYLNDLLKGG[Thr(3ξ)]-NH2; lactam 21-25) | + (+ >50%) | + (+ 10-30%) |
|  |  |  |  | 5.1 | 276 | CCCC[C@H](NC(=O)[C@H](CCCNC(=N)N)NC(=O)[C@H](CCCCN)NC(=O)[C@H](CCCNC(=N)N)NC(=O)[C@H](CC(C)C)NC(=O)[C@H](CCCCN)NC(=O)[C@@H](NC(=O)[C@H](Cc1ccc(O)cc1)NC(=O)[C@H](CC(N)=O)NC(=O)[C@H](CCC(=O)O)NC(=O)[C@@H](NC(=O)[C@H](Cc1ccccc1)NC(=O)[C@H](CO)NC(=O)[C@H](C)NC(=O)[C@H](CC(=O)O)NC(=O)[C@H](C)NC(=O)[C@H](Cc1c[nH]cn1)NC(C)=O)C(C)O)C(C)O)C(=O)N[C@@H](CCCCN)C(=O)N[C@@H](C)C(=O)N[C@@H](CCCCN)C(=O)N[C@H]1CCCCNC(=O)C[C@@H](C(=O)N[C@@H](CC(C)C)C(=O)N[C@@H](CCCCN)C(=O)N[C@@H](CCCCN)C(=O)NCC(=O)NCC(=O)N[C@H](C(N)=O)C(C)O)NC(=O)[C@H](CC(N)=O)NC(=O)[C@H](CC(C)C)NC(=O)[C@H](Cc2ccc(O)cc2)NC1=O (stereo partly shown) [Example 18] (Ac-HADASF[Thr(3ξ)]ENY[Thr(3ξ)]KLRKR[Nle]KAKKYLNDLKKGG[Thr(3ξ)]-NH2; lactam 21-25) | + (+ >50%) |  |
|  |  |  |  | 5.2 | 7.4 | CCCC[C@H](NC(=O)[C@H](CCC(N)=O)NC(=O)[C@H](CCCCN)NC(=O)[C@H](CCCNC(=N)N)NC(=O)[C@H](CC(C)C)NC(=O)[C@H](CCCCN)NC(=O)[C@@H](NC(=O)[C@H](Cc1ccc(O)cc1)NC(=O)[C@H](CC(N)=O)NC(=O)[C@H](CCC(=O)O)NC(=O)[C@@H](NC(=O)[C@H](Cc1ccccc1)NC(=O)[C@H](CO)NC(=O)[C@H](C)NC(=O)[C@H](CC(=O)O)NC(=O)[C@H](C)NC(=O)[C@H](Cc1c[nH]cn1)NC(C)=O)C(C)O)C(C)O)C(=O)N[C@@H](C)C(=O)N[C@@H](C)C(=O)N[C@@H](CCCCN)C(=O)N[C@H]1CCCCNC(=O)C[C@@H](C(=O)N[C@@H](CC(C)C)C(=O)N[C@@H](CCCCN)C(=O)N[C@@H](CCCCN)C(=O)NCC(=O)NCC(=O)N[C@H](C(N)=O)C(C)O)NC(=O)[C@H](CC(N)=O)NC(=O)[C@H](CC(C)C)NC(=O)[C@H](Cc2ccc(O)cc2)NC1=O (stereo partly shown) [Example 12] (Ac-HADASF[Thr(3ξ)]ENY[Thr(3ξ)]KLRKQ[Nle]AAKKYLNDLKKGG[Thr(3ξ)]-NH2; lactam 21-25) | + (+ >50%) | + (+ 10-30%) |
|  |  |  |  | 6 | 2.35 | CCCC[C@H](NC(=O)[C@H](CCC(N)=O)NC(=O)[C@H](CCCCN)NC(=O)[C@H](CCCNC(=N)N)NC(=O)[C@H](CC(C)C)NC(=O)[C@H](CCCCN)NC(=O)[C@@H](NC(=O)[C@H](Cc1ccc(O)cc1)NC(=O)[C@H](CC(N)=O)NC(=O)[C@H](CCC(=O)O)NC(=O)[C@@H](NC(=O)[C@H](Cc1ccccc1)NC(=O)[C@@](C)(NC(=O)[C@H](C)NC(=O)[C@H](CC(=O)O)NC(=O)[C@H](CO)NC(=O)[C@H](Cc1c[nH]cn1)NC(C)=O)C(C)C)C(C)O)C(C)O)C(=O)N[C@@H](C)C(=O)N[C@@H](C)C(=O)N[C@@H](CCCCN)C(=O)N[C@H]1CCCCNC(=O)C[C@@H](C(=O)N[C@@H](CC(C)C)C(=O)N[C@@H](CCCCN)C(=O)N[C@@H](CCCCN)C(=O)NCC(=O)NCC(=O)N[C@H](C(N)=O)C(C)O)NC(=O)[C@H](CC(N)=O)NC(=O)[C@H](CC(C)C)NC(=O)[C@H](Cc2ccc(O)cc2)NC1=O (stereo partly shown) [Example 6] (Ac-HSDA[αMeV]F[Thr(3ξ)]ENY[Thr(3ξ)]KLRKQ[Nle]AAKKYLNDLKKGG[Thr(3ξ)]-NH2; lactam 21-25) | ++ (++ <50%) | ++ (++ >30%) |
